Assay results from patent US11266643B2, “Triaryl compounds for treatment of PD-L1 diseases” (CHEMOCENTRYX, INC., priority 2019, dated 2022).

target: human PD-L1 (Homo sapiens (Human), UniProt Q9NZQ7); assay: Enzyme-Linked Immunosorbent Assay (ELISA), PD-1/PD-L1 binding; conditions: human PD-1/PD-L1 ELISA, plates coated with human PD-L1
Description: 96 Well plates were coated with […] of human PD-L1 (obtained from R&D) in PBS overnight at 4° C. The wells were then blocked with 2% BSA in PBS (W/V) with 0.05% TWEEN-20 for 1 hour at 37° C. The plates were washed 3 times with PBS/0.05% TWEEN-20 and the compounds were serial diluted (1:5) in dilution medium and added to the ELISA plates. Human PD-1 […] 0.31 μg/mL (ACRO Biosystems) were added and incubated for 1 hour at 37° C. then washed 3 times with PBS/0.05% TWEEN-20. A second block was performed with 2% BSA in PBS (W/V)/0.05% TWEEN-20 for 10 min at 37° C. and the plates were washed 3 times with PBS/0.05% TWEEN-20. Streptavidin-HRP was added for 1 hour at 37° C. then the plates were washed 3 times with PBS/0.05% TWEEN-20. TMB substrate was added and reacted for 20 min at 37° C. A stop solution (2 N aqueous H2SO4) was added. The absorbance was read at 450 nm using a micro-plate spectrophotometer.
Using the methods described in the Examples above, the compounds in Table 2 were prepared & tested for biological activity using the ELISA method described above.

Sequence of human PD-L1 (Q9NZQ7 19-239): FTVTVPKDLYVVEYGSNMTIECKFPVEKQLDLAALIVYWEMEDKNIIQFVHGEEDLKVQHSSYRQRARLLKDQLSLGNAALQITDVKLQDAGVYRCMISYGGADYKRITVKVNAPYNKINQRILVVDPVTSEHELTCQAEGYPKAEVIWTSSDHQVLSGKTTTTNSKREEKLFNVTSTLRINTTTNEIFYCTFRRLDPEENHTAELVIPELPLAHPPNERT

SMILES	IC50 [nM]
COc1cc(-c2cccc(-c3cccc(NC(=O)c4cn(C)c(=O)n(C)c4=O)c3C)c2Cl)cc(F)c1CN[C@H]1CCOC[C@@H]1O (racemic) [Example 1.011]	< 10
COc1cc(-c2cccc(-c3cccc(NC(=O)c4cn(C)c(=O)n(C)c4=O)c3C)c2C)cc(F)c1CN[C@H]1CCOC[C@@H]1O (racemic) [Example 1.013]	< 10
COc1cc(-c2cccc(-c3cccc(NC(=O)c4cn(C)c(=O)n(C)c4=O)c3C)c2C)cc(F)c1CN[C@H]1COCC[C@@H]1O [Example 1.001]	< 10
COc1cc(-c2cccc(-c3cccc(NC(=O)c4cn(C)c(=O)n(C)c4=O)c3C)c2C)cc(F)c1CN[C@@H]1COCC[C@H]1O [Example 1.002]	< 10
COc1cc(-c2cccc(-c3cccc(NC(=O)c4cn(C)c(=O)n(C)c4=O)c3C)c2F)cc(F)c1CN[C@@H]1CCC(=O)NC1 [Example 1.004]	< 10
COc1cc(-c2cccc(-c3cccc(NC(=O)c4cn(C)c(=O)n(C)c4=O)c3C)c2F)cc(F)c1CN[C@H]1CCC(=O)NC1 [Example 1.005]	< 10
COc1cc(-c2cccc(-c3cccc(NC(=O)c4cn(C)c(=O)n(C)c4=O)c3Cl)c2Cl)cc(F)c1CN[C@@H]1CCOC[C@H]1O [Example 1.006]	< 10
COc1cc(-c2cccc(-c3cccc(NC(=O)c4cn(C)c(=O)n(C)c4=O)c3Cl)c2Cl)cc(F)c1CN[C@H]1CCC(=O)NC1 [Example 1.007]	< 10
COc1cc(-c2cccc(-c3cccc(NC(=O)c4cn(C)c(=O)n(C)c4=O)c3Cl)c2Cl)cc(F)c1CN[C@H]1CCOC[C@H]1O [Example 1.008]	< 10
COc1cc(-c2cccc(-c3cccc(NC(=O)c4cn(C)c(=O)n(C)c4=O)c3Cl)c2C)cc(F)c1CN[C@@H]1CCC(=O)NC1 [Example 1.009]	< 10
COc1cc(-c2cccc(-c3cccc(NC(=O)c4cn(C)c(=O)n(C)c4=O)c3Cl)c2C)cc(F)c1CN[C@@H]1CCOC[C@@H]1O [Example 1.010]	< 10
COc1cc(-c2cccc(-c3cccc(NC(=O)c4cn(C)c(=O)n(C)c4=O)c3C)c2C)cc(F)c1CN[C@@H]1CCOC[C@H]1O [Example 1.012]	< 10
COc1cc(-c2cccc(-c3cccc(NC(=O)c4cn(C)c(=O)n(C)c4=O)c3C)c2F)cc(F)c1CN[C@@H]1CCOC[C@@H]1O [Example 1.016]	< 10
COc1cc(-c2cccc(-c3cccc(NC(=O)c4cn(C)c(=O)n(C)c4=O)c3C)c2Cl)cc(F)c1CN[C@@H]1CCOC[C@@H]1O [Example 1.017]	< 10
COc1cc(-c2cccc(-c3cccc(NC(=O)c4cn(C)c(=O)n(C)c4=O)c3C)c2Cl)cc(F)c1CN[C@H]1CCC(=O)NC1 [Example 1.018]	< 10
COc1cc(-c2cccc(-c3cccc(Nc4nccc5nccnc45)c3Cl)c2C)cc(F)c1CNC[C@@H]1CCC(=O)N1 [Example 1.019]	< 10
COc1cc(-c2cccc(-c3cccc(NC(=O)c4cn(C)c(=O)n(C)c4=O)c3C)c2F)cc(F)c1CN[C@@H]1CNC(=O)C1 [Example 1.020]	< 10
COc1cc(-c2cccc(-c3cccc(NC(=O)c4cn(C)c(=O)n(C)c4=O)c3C)c2F)cc(F)c1CNC[C@@H]1CCC(=O)N1 [Example 1.021]	< 10

SMILES	IC50 [nM]
COc1cc(-c2cccc(-c3cccc(Nc4nccc5nccnc45)c3Cl)c2C)cc(F)c1CNCC(C)(C)C(N)=O [Example 1.022]	10 to 1000
COc1cc(-c2cccc(-c3cccc(Nc4nccc5nccnc45)c3Cl)c2C)cc(F)c1CN[C@@H]1CNC(=O)C1 [Example 1.023]	10 to 1000
COc1cc(-c2cccc(-c3cccc(Nc4nccc5nccnc45)c3C)c2Cl)cc(F)c1CN[C@@H]1CNC(=O)C1 [Example 1.024]	< 10
COc1cc(-c2cccc(-c3cccc(NC(=O)c4cn(C)c(=O)n(C)c4=O)c3Cl)c2C)cc(F)c1CN[C@H]1CCC(=O)NC1 [Example 1.026]	< 10
COc1cc(-c2cccc(-c3cccc(Nc4nccc5nccnc45)c3C)c2Cl)cc(F)c1CNC[C@@H]1CCC(=O)N1 [Example 1.027]	< 10
COc1cc(-c2cccc(-c3cccc(Nc4nccc5nccnc45)c3C)c2F)cc(F)c1CNC[C@@H]1CCC(=O)N1 [Example 1.028]	10 to 1000
COc1cc(-c2cccc(-c3cccc(Nc4nccc5nccnc45)c3C)c2F)cc(F)c1CNCC(C)(C)C(N)=O [Example 1.029]	10 to 1000
COc1cc(-c2cccc(-c3cccc(NC(=O)c4cn(C)c(=O)n(C)c4=O)c3Cl)c2C)cc(F)c1CNC[C@@H]1CCC(=O)N1 [Example 1.030]	< 10
COc1cc(-c2cccc(-c3cccc(NC(=O)c4cn(C)c(=O)n(C)c4=O)c3Cl)c2Cl)cc(F)c1CNC[C@@H]1CCC(=O)N1 [Example 1.031]	< 10
COc1cc(-c2cccc(-c3cccc(NC(=O)c4cn(C)c(=O)n(C)c4=O)c3Cl)c2C)cc(F)c1CNCC(C)(C)C(N)=O [Example 1.032]	< 10
COc1cc(-c2cccc(-c3cccc(NC(=O)c4cn(C)c(=O)n(C)c4=O)c3C)c2F)cc(F)c1CNCC(C)(C)C(N)=O [Example 1.033]	< 10
COc1cc(-c2cccc(-c3cccc(NC(=O)c4cn(C)c(=O)n(C)c4=O)c3C)c2Cl)cc(F)c1CNCC(C)(C)C(N)=O [Example 1.034]	< 10
COc1cc(-c2cccc(-c3cccc(NC(=O)c4cn(C)c(=O)n(C)c4=O)c3C)c2Cl)cc(F)c1CN[C@@H]1CNC(=O)C1 [Example 1.035]	< 10
COc1cc(-c2cccc(-c3cccc(NC(=O)c4cn(C)c(=O)n(C)c4=O)c3C)c2Cl)cc(F)c1CNC[C@@H]1CCC(=O)N1 [Example 1.036]	< 10
COc1cc(-c2cccc(-c3cccc(NC(=O)c4cn(C)c(=O)n(C)c4=O)c3F)c2C)cc(F)c1CNC[C@@H]1CCC(=O)N1 [Example 1.037]	< 10
COc1cc(-c2cccc(-c3cccc(NC(=O)c4cn(C)c(=O)n(C)c4=O)c3C)c2C)cc(F)c1CN[C@@H]1CCOC1 [Example 1.038]	< 10
COc1cc(-c2cccc(-c3cccc(NC(=O)c4cn(C)c(=O)n(C)c4=O)c3C)c2C)cc(F)c1CN[C@H]1CCOC1 [Example 1.039]	< 10
COc1cc(-c2cccc(-c3cccc(Nc4nccc5nccnc45)c3C)c2C)cc(F)c1CN[C@@H]1CCOC[C@@H]1O [Example 1.040]	< 10

Further lines, results first:

IC50 [nM]	SMILES
< 10	COc1cc(-c2cccc(-c3cccc(NC(=O)c4cncn(C)c4=O)c3C)c2C)cc(F)c1CN[C@@H]1CC[C@H]1O (racemic) [Example 1.163]
< 10	COc1cc(-c2cccc(-c3cccc(Nc4cncc5nccnc45)c3C)c2C)cc(F)c1CN[C@@H]1CCOC[C@@H]1O [Example 1.041]
< 10	COc1cc(-c2cccc(-c3cccc(Nc4cncc5nccnc45)c3C)c2C)cc(F)c1CN[C@H]1CCC(=O)NC1 [Example 1.042]
< 10	COc1cc(-c2cccc(-c3cccc(Nc4cncc5nccnc45)c3C)c2C)cc(F)c1CN[C@@H]1CNC(=O)C1 [Example 1.043]
10 to 1000	COc1cc(-c2cccc(-c3cccc(NC(=O)c4cn(C)c(=O)n(C)c4=O)c3F)c2C)cc(F)c1CN[C@@H]1CNC(=O)C1 [Example 1.044]
10 to 1000	COc1cc(-c2cccc(-c3cccc(NC(=O)c4nn(C)c(=O)n(C)c4=O)c3C)c2C)cc(F)c1CNC1CNC(=O)NC1=O (stereo not shown) [Example 1.045]
< 10	COc1cc(-c2cccc(-c3cccc(NC(=O)c4cn(C)c(=O)n(C)c4=O)c3Cl)c2C)cc(F)c1CN[C@@H]1CNC(=O)C1 [Example 1.047]
< 10	COc1cc(-c2cccc(-c3cccc(Nc4cncc5nccnc45)c3C)c2C)cc(F)c1CNC[C@@H]1CCC(=O)N1 [Example 1.048]
< 10	COc1cc(-c2cccc(-c3cccc(NC(=O)c4c[nH]c(=O)n(C)c4=O)c3C)c2C)cc(F)c1CN[C@@H]1CCOC1 [Example 1.049]
< 10	COc1cc(-c2cccc(-c3cccc(NC(=O)c4c[nH]c(=O)n(C)c4=O)c3C)c2C)cc(F)c1CN[C@H]1CCOC1 [Example 1.050]
< 10	COc1cc(-c2cccc(-c3cccc(NC(=O)c4cncn(C)c4=O)c3C)c2C)cc(F)c1CNCC1CCNC(=O)C1 (stereo not shown) [Example 1.051]
< 10	COc1cc(-c2cccc(-c3cccc(NC(=O)c4cn(C)c(=O)n(C)c4=O)c3C)c2C)cc(F)c1CNC1CCOCC1 [Example 1.052]
< 10	COc1cc(-c2cccc(-c3cccc(NC(=O)c4c[nH]c(=O)n(C)c4=O)c3C)c2C)cc(F)c1CNC1CCOCC1 [Example 1.053]
< 10	COc1cc(-c2cccc(-c3cccc(NC(=O)c4nn(C)c(=O)n(C)c4=O)c3C)c2C)cc(F)c1CNCc1c[nH]c(=O)[nH]c1=O [Example 1.054]
< 10	COc1cc(-c2cccc(-c3cccc(NC(=O)c4nn(C)c(=O)n(C)c4=O)c3C)c2C)cc(F)c1CNC1CCNC(=O)C1 (stereo not shown) [Example 1.055]
< 10	COc1cc(-c2cccc(-c3cccc(NC(=O)c4nn(C)c(=O)n(C)c4=O)c3C)c2C)cc(F)c1CNC[C@@H]1CCC(=O)N1C [Example 1.056]
< 10	COc1cc(-c2cccc(-c3cccc(NC(=O)c4cn(C)c(=O)n(C)c4=O)c3C)c2C)cc(F)c1CN[C@@H]1COC[C@H]1O [Example 1.057]
10 to 1000	COc1cc(-c2cccc(-c3cccc(NC(=O)c4nn(C)c(=O)n(C)c4=O)c3C)c2C)cc(F)c1CN[C@@H]1CCC(=O)NC1=O [Example 1.058]
10 to 1000	COc1cc(-c2cccc(-c3cccc(NC(=O)c4nn(C)c(=O)n(C)c4=O)c3C)c2C)cc(F)c1CN[C@@H]1CCCNC1=O [Example 1.059]
